Reference: paper PMC10683025, “Discovery of a Hydroxylamine-Based Brain-Penetrant EGFR Inhibitor for Metastatic Non-Small-Cell Lung Cancer” (Journal of Medicinal Chemistry, 2023)
≈ marks a conversion by molar mass, not a printed value. Where two headings read alike, the source gives them in different places.

Experiments:
[1] = tested on: NCI-H3255 (EGFR mutation = L858R); test: CellTiter-Glo cell viability assay; assay type: cell-based, human; conditions: Homo sapiens, NCI-H3255; 72 h, unadjusted for FBS
Protocol: The NCI-H3255 cell line was obtained from CoBioer. […] NCI-H3255 cells were cultured in BEGM (Lonza) with 10% FBS. […] All cells were cultured in a humidified incubator with 5% CO2 at 37 °C.
Viability assays using A431, HCC827, NCI-H1975, NCI-H3255, Ba/F3 EGFR-del E746_A750/C797S, Ba/F3 EGFR-L858R/C797S, AU565, SK-BR-3, and ZR-75-30 cells were performed at Crown BioScience.

[2] = Metabolic stability in liver microsomes; assay type: in vitro ADME, human; conditions: for Remaining Percentage: human LM
Protocol: (§2) Microsome stability was assessed in duplicate (n = 2) in the presence and absence of nicotinamide adenine dinucleotide phosphate (NADPH) with liver microsomes (0.5 mg/mL) from human (BD Gentest) and Sprague-Dawley rats (BD Gentest). Compounds were incubated in liver microsomes at 1 μM and samples (30 μL) were taken at 0.5, 15, 30, 45, and 60 min time points for analysis by LC-MS/MS. Hepatocyte stability was assessed in duplicate (n = 2) at a working cell density of 0.5 × 10^6 cells/mL with hepatocytes from human (BiolVT), Sprague-Dawley rat (BiolVT), cynomolgus monkey (RILD) or beagle dog (BiolVT). […] The in vitro half-life and intrinsic clearances were determined as previously described.[76]
(§3) In vitro half-life (in vitro t1/2) was determined from the slope value in [drawing 1] where k was determined by linear regression of the natural logarithm of the remaining percentage of the parent drug vs the incubation time curve.

Plasma stability [3] = assay type: in vitro ADME, Sprague-Dawley rat; conditions: rat plasma
Protocol: (§1) Assessment of compounds to determine stability in incubations containing plasma of human (Pharmaron) and Sprague-Dawley rat (IPHASE) was performed by Pharmaron, Inc. using the compound […] approach. Compounds were assessed in duplicate (n = 2) and incubated in plasma at 5 μM and samples (50 μL) were taken at 0, 15, 30, 60, and 120 min time points for analysis by LC-MS/MS. Peak area ratios were determined from the extracted ion chromatogram and the percent compound remaining at each time point was calculated by the following equation: [drawing 2] where peak area ratiot min is the peak area ratio of control and test compound at t min and peak area ratio0 min is the peak area ratio of control and test compound at zero time point.

Caco-2 permeability = assay type: in vitro ADME; conditions: human; for recovery at 2 h, 5 μM: Caco-2, Caco-2
Protocol: A 96-well HTS Transwell plate (Corning) was used for Caco-2 and MDCKII-MDR1 cell seeding. […] Plates were incubated at 37 °C for 2 h, and samples (50 μL) were taken at the beginning and end of the incubation in both the donor and acceptor wells with the assay run in duplicate (n = 2). Samples were analyzed by LC-MS/MS.
The efflux ratio was determined by using the following equation: [drawing 4] where Papp (B–A) indicates the apparent permeability in the basolateral to apical direction and Papp (A–B) indicates the apparent permeability in the apical to basolateral direction.

Plasma stability [4] = assay type: in vitro ADME, human; conditions: human plasma
Protocol: as §1

[5] = Lipophilicity, shake-flask; assay type: physicochemical; conditions: 1-octanol/PBS; 1-octanol and PBS (pH 7.4); read-out: logD7.4
Protocol: Compound lipophilicity was determined by Pharmaron, Inc. using the shake-flask method with 1-octanol and PBS (pH 7.4). Each compound was assessed in duplicate (n = 2) at 1 μM in a 96-well plate shaken at 25 °C and 2000 rpm for 2 h. Samples were analyzed by liquid chromatography and tandem mass spectrometry (LC-MS/MS).

EGFRL858R = EGFRL858R (Homo sapiens, UniProt P00533, L858R); test: KINOMEScan KdELECT Kd determination; assay type: binding; design: purchased Eurofins DiscoverX (contract assay); conditions: L858R
Protocol: In vitro kinase activity (inhibitor binding constants (Kd) and biochemical inhibition (IC50’s)) were assessed by Eurofins DiscoverX (Kd determinations) and Eurofins Cerep (biochemical IC50 determinations).

Pharmacokinetic study = assay type: in vivo, Sprague-Dawley rats; conditions: male, Sprague-Dawley, plasma; rat, 1 mg/kg IV and 5 mg/kg PO dosing (route of value not stated)
Protocol: Animal experiments were performed at Pharmaron, Inc. and animal use was approved by Pharmaron’s Institutional Animal Care and Use Committee (IACUC) in Pharmaron (Pharmaron IACUC, Protocol #PK-M-07182022, #PK-R-06012022, and #ON-CELL-XEN-06012022) following the guidance of AAALAC. Six- to eight-week-old male Sprague-Dawley rats (approximately 200–300 g) obtained from Si Bei Fu Laboratory Animal Technology Co., six- to eight-week-old male CD1 mice (approximately 20–30 g) obtained from Si Bei Fu Laboratory Animal Technology Co., and six- to eight-week-old female BALB/c nude mice (approximately 20–30 g) obtained from Si Bei Fu Laboratory Animal Technology Co., were used in the pharmacokinetic studies. Six- to eight-week-old female BALB/c nude mice (approximately 18–22 g) obtained from Beijing Anikeeper Biotech Co., Ltd. were used in the intracranial PDX study. Animals were housed at 20–25 °C with humidity ranging from 40 to 70% relative humidity, were exposed to 12 h light and dark cycles, and were supplied with food and water ab libitum.
Approximately 0.03 mL of blood was collected from the dorsal metatarsal vein (in the case of CD1 mice), 0.03 mL of blood from the orbit vein (in the case of BALB/c nude mice), or 0.2 mL of blood from the jugular vein (in the case of Sprague-Dawley rats) at each time point. Blood at each sampling point was transferred into a plastic micro centrifuge tube containing K2-EDTA, and collection tubes with blood samples and anticoagulant were inverted several times for proper mixing of the tube contents and placed on ice prior to centrifugation for plasma. Blood samples were centrifuged at 4 °C, 4000g for 5 min to obtain plasma. Samples were stored in a freezer at −75 °C prior to analysis. Concentrations of test articles in the plasma samples were determined using LC-MS/MS and WinNonlin 8.3 (Phoenix) was used for pharmacokinetic calculations. The values obtained were plotted on GraphPad Prism software and are presented as mean ± SD.

[6] = Metabolic stability in liver microsomes; assay type: in vitro ADME, Sprague-Dawley rat; conditions: for Remaining Percentage: rat LM
Protocol: as §2, §3

MDCKII-MDR1 permeability = assay type: in vitro ADME, canine; conditions: dog, MDCK-MDR1, MDCKII-MDR1
[7] = Brain tissue binding by equilibrium dialysis; assay type: in vitro ADME; conditions: rat
Protocol: Plasma protein binding and brain tissue binding were determined by Pharmaron, Inc. using the equilibrium dialysis method. […] Following incubation, the samples were analyzed by LC-MS/MS and the concentrations of the compounds were determined in the buffer and plasma solution chambers.

Solubility assay = assay type: physicochemical; conditions: buffer, pH 7.4, aqueous buffer; read-out: Aq. Sol.
Protocol: Solubility was determined by Pharmaron, Inc. and each compound was assessed in duplicate (n = 2) by adding 15 μL of compound stock solution (10 mM in DMSO) into a 96-well plate along with 485 μL of buffer followed by shaking at 25 °C, 1100 rpm for 2 h. Wells were filtered, and samples (5 μL) were taken followed by dilution with an equal volume of DMSO (5 μL) and 490 μL of aqueous solution. Samples were analyzed by LC-MS/MS.

Chain of EGFRL858R (P00533 25-1210 L858R): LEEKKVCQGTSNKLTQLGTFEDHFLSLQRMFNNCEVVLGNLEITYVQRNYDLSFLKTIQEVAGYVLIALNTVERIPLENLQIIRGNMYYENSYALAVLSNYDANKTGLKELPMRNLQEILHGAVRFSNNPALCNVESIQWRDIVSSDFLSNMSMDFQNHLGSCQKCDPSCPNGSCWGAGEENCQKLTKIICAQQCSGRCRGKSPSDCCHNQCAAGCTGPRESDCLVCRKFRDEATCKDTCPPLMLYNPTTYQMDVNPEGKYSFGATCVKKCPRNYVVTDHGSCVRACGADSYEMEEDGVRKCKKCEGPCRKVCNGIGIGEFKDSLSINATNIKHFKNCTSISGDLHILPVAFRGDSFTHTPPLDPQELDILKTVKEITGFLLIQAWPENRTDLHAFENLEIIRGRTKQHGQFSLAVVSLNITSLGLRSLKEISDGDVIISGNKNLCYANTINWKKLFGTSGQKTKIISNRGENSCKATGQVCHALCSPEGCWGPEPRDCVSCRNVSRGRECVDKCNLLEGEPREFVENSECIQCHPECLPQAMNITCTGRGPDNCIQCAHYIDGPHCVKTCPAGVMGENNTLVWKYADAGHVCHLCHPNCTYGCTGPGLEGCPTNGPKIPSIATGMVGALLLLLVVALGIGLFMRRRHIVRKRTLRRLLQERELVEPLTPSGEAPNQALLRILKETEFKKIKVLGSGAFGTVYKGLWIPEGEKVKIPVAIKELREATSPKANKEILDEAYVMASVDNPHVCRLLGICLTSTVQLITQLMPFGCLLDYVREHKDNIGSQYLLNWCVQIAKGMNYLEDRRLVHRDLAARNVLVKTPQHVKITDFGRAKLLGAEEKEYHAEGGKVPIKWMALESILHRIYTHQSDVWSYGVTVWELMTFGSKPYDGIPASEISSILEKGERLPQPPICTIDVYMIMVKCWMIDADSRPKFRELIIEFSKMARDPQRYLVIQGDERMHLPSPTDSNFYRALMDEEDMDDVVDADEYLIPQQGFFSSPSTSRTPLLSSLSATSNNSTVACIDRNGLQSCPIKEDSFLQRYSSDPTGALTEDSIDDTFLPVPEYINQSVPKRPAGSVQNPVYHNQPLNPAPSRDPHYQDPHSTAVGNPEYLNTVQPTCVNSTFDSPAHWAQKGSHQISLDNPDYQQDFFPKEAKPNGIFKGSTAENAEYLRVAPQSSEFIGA

SMILES: COc1cc2ncnc(Nc3cccc(Cl)c3F)c2cc1OCCON1CCOCC1 [Compound 7, N-(3-Chloro-2-fluorophenyl)-7-methoxy-6-(2-(morpholinooxy)ethoxy)quinazolin-4-amine]
- IC50 [1]: 17 nM
- Remaining Percentage ([2]; +Cofactors, 15 min): 43.79%
- Remaining Percentage ([2]; +Cofactors, 30 min): 21.93%
- Remaining Percentage ([2]; +Cofactors, 45 min): 10.84%
- Remaining Percentage ([2]; +Cofactors, 60 min): 7.20%
- Remaining Percentage ([2]; -Cofactors, 60 min): 87.34%
- half-life at 1 h, 1 µM ([2]; human, liver microsomes, read-out: LM t1/2): 14 min
- microsomal CLint at 1 h, 1 µM ([2]; human, liver microsomes, read-out: LMClint): 99 µL/min/mg
- Remaining Percentages (Plasma stability [3]; 15 min): 91.34%
- Remaining Percentages (Plasma stability [3]; 30 min): 93.84%
- Remaining Percentages (Plasma stability [3]; 60 min): 93.29%
- Remaining Percentages (Plasma stability [3]; 120 min): 95.67%
- t1/2 (Plasma stability [3]; ∞ = no degradation): ∞
- efflux ratio at 2 h, 5 µM (Caco-2 permeability; Caco-2): 1
- recovery at 2 h, 5 μM (Caco-2 permeability; read-out: Recovery% (AP-BL)): 72.9%
- recovery at 2 h, 5 μM (Caco-2 permeability; read-out: Recovery% (BL-AP)): 72.2%
- Papp A→B at 2 h, 5 µM (Caco-2 permeability; Caco-2, 5 μM, 2 h): 10.9 ×10⁻⁶ cm/s
- Papp A→B at 2 h, 5 μM (Caco-2 permeability; Caco-2, 5 μM, 2 h): 10.9 ×10⁻⁶ cm/s
- Papp B→A at 2 h, 5 µM (Caco-2 permeability; Caco-2, 5 μM, 2 h): 10.8 ×10⁻⁶ cm/s
- Papp B→A at 2 h, 5 μM (Caco-2 permeability; Caco-2, 5 μM, 2 h): 10.8 ×10⁻⁶ cm/s
- Remaining Percentages (Plasma stability [4]; 15 min): 100.68%
- Remaining Percentages (Plasma stability [4]; 30 min): 93.61%
- Remaining Percentages (Plasma stability [4]; 60 min): 100.91%
- Remaining Percentages (Plasma stability [4]; 120 min): 97.91%
- t1/2 (Plasma stability [4]; ∞ = no degradation): ∞
- logD at 2 h, 1 µM [5]: 3.4
- Kd (EGFRL858R): < 0.2 nM
- AUC(0-inf) at 24 h (Pharmacokinetic study): 89 ng·h/mL
- half-life at 24 h (Pharmacokinetic study): 33.6 min
- half-life at 1 h, 1 µM ([6]; Sprague-Dawley, rat, liver microsomes, read-out: LM t1/2): 10 min
- microsomal CLint at 1 h, 1 µM ([6]; Sprague-Dawley, rat, liver microsomes, read-out: LMClint): 138 µL/min/mg
- Remaining Percentage ([6]; +Cofactors, 15 min): 28.79%
- Remaining Percentage ([6]; +Cofactors, 30 min): 12.97%
- Remaining Percentage ([6]; +Cofactors, 45 min): 8.49%
- Remaining Percentage ([6]; +Cofactors, 60 min): 5.84%
- Remaining Percentage ([6]; -Cofactors, 60 min): 118.60%
- recovery at 2 h, 1 μM (MDCKII-MDR1 permeability; read-out: Recovery% (AP-BL)): 73.5%
- recovery at 2 h, 1 μM (MDCKII-MDR1 permeability; read-out: Recovery% (BL-AP)): 76.4%
- recovery at 6 h, 5 μM ([7]; Sprague-Dawley (SD), rat brain homogenate): 94.7%
- fraction unbound at 6 h, 5 μM ([7]; Sprague-Dawley, brain homogenate, read-out: fu,brain% / %Unboundbrain): 0.0478
- remaining at 6 h, 5 μM ([7]; Sprague-Dawley, rat brain homogenate): 98.3%
- fraction unbound at 6 h, 5 μM ([7]; Sprague-Dawley, rat brain homogenate, read-out: %Boundbrain (converted)): 0.0478
- solubility kinetic at 2 h (Solubility assay): 36 µM (≈ 16.2 µg/mL)
